Here are results for 2 compounds from patent publication US8465758B2, “Drug delivery from stents” (Abbott Laboratories, priority 2001, dated 2013).

For series [1] the following is noted: P is the partition coefficient; cited from earlier work.
Another series deals with Yucatan minipigs. As to the kind of experiment: 3-month pre-clinical evaluation (QCA stenosis). The class given is in vivo. The settings on record: 3 months, not statistically significant (p=0.15). From the text: After 3 months a trend in favour of the treatment groups was found, with an indication of a dose-response relationship shown in FIG. 5. The stenosis was reduced by 20% and 34% in the low and high dose groups respectively compared to the control.

Series [2] is described as follows: Pharmacokinetic study, 14C batimastat-loaded BiodivYsio stents in iliac arteries. The settings on record: rabbit iliac arteries, 28 days post-implantation. The series is classed as in vivo, New Zealand white rabbit. The text has this: The pharmacokinetic studies were initiated to investigate the deposition of drug from the batimastat-loaded BiodivYsio stent.

The subject of series [3] is coronary arteries of farm swine. The series is described as follows: Re-endothelialisation of batimastat-loaded BiodivYsio stents (SEM). The series is classed as in vivo. The settings on record: 5 days. From the text: BiodivYsio stents (control, low dose batimastat and high dose batimastat) were implanted into healthy farm swine. After 5 days the animals were sacrificed and the stents studied for endothelialisation using scanning electron microscopy.
The stents were implanted into the coronary arteries of farm swine (2 per animal, each in different arteries). After sacrifice, the vessels were excised and trimmed of all extraneous tissue, washed in buffer, and fixed in 2.5% glutaraldehyde at pH 7.4. Fixation was carried out for a minimum of 24-48 hours in 2.5% glutaraldehyde. The section of artery was rinsed in 0.1M cacodylate buffer pH 7.4. The arteries were shipped in 0.1M cacodylate buffer pH 7. The vessels were required to be left whole, i.e. without longitudinal transection. A small V was marked in the proximal end of the vessel to determine vessel orientation. SEM analysis was carried out on three sections of the stented artery and at 2 different magnifications (high and low). The analysis concentrated on the rate and extent of re-endothelisation of the stent struts and the presence of any cellular/biological debris within the stented segment of artery.

Series [4] can be described thus: Solubility of batimastat in ethanol (100%). The class given is physicochemical. From the text:
This was by preparation of a series of solutions outlined in Table 1

Another series has as its system farm swine. As to the kind of experiment: One-month pre-clinical assessment (QCA, histomorphometry, histology). The class given is in vivo. The settings on record: low dose 0.30 μg per mm^2 of stent, 1 month, control 4.0. The text has this:
A total of 24 stents were implanted in 12 farm swine pigs for 1 month. […] The higher dose was set at the maximum quantity that could be loaded onto the stent.

Series [5] in a line: Batimastat elution from stents in PBS, non flow system. The class given is physicochemical. The settings on record: coated stents loaded from methanol, after 1 hour, based on total amount loaded. On the procedure:
Elution studies were carried out at 25° C. for up to 1 hour in gently agitated PBS. […] At various time intervals a I ml aliquot was removed and replaced with 1 ml fresh PBS. The stents and water aliquots were measured, see section 1.1.4, to give the amount of drug eluted and the amount of drug remaining on the stents, see section 1.2.1 for results. Samples of eluent from elution studies were injected directly into the system. The sensitivity of the method was 0.010 ppm (0.010 μg/ml).

Molecules are shown by their SMILES.

Usually log P stands for the decadic logarithm of the partition coefficient of the neutral form, usually between octanol and water. For `C[C@@H]1C[C@H]2[C@@H]3CCC4=CC(=O)C=C[C@]4(C)[C@@]3(F)[C@@H](O)C[C@]2(C)[C@@]1(O)C(=O)CO` [dexamethasone], the “log P” value in series [1] is on record as 2.55.

For the compound `CNC(=O)[C@H](Cc1ccccc1)NC(=O)[C@H](CC(C)C)[C@H](CSc1cccs1)C(=O)NO` (relative stereo) [batimastat, (2R-(1(S*),2R*,3S*))—N4-hydroxy-N1-(2-(methylamino)-2-oxo-1-(phenylmethypethyl)-2-(2-methylpropyl)-3-((thienylthio)methyl)butanediamide], the “Reduction of stenosis compared to the control (QCA)” value turned out to be 34% with Yucatan minipigs (high dose 0.30±0.13 μg per mm^2 of stent) and 20% in the series on Yucatan minipigs (low dose 0.03±0.01 μg per mm^2 of stent). The “Loaded drug eluted from stent” value in series [2] is listed as about 95%. The “Effect on endothelialisation process in-vivo” value in series [3] (high dose 115.3±16.1 μg per 15 mm stent) and in series [3] (low dose 34.2±1.6 μg per 15 mm stent) was “did not affect the endothelialisation process” in each case. Besides, the figures for the Solubility entry in series [4] (1.05 mg per ml batimastat in ethanol (100%)), in series [4] (1.13 mg per ml batimastat in ethanol (100%)) and in series [4] (2.6 mg per ml batimastat in ethanol (100%)) were “clear suspension”, “fine suspension” and “white suspension”, respectively. This compound also gave an Intimal area in the series with farm swine of 2.5. The “Batimastat remaining on the stents” value in series [5] is listed as 44%.
